The values that follow come from US7105534B2, “Imidazo[1,2-α]pyridine ether compounds as ion channel modulators” (Cardiome Pharma Corp., priority 2000, dated 2006).

In series [1] the target is T1, Kv1.5 (Homo sapiens, UniProt P22460).
T1 construct: expressed in transfected cells; host or cells: HEK cells, transient transfection, vector pCDNA3
Nature of the series: Patch-clamp inhibition of cloned ion channel current in transfected HEK cells: Kv1.5. Format: cell-based. The conditions noted are these: steady-state current, -80 mV to +60 mV. The procedure: (§1) The relevant cloned ion channels (e.g. cardiac hH1, Kv1.4, Kv1.5, Kv4.2, Kv2.1, HERG etc.) are studied by transient transfection into HEK cells using the mammalian expression vector pCDNA3. Transfections for each channel type are carried out separately to allow individual study of the ion channel of interest. Cells expressing channel protein are detected by cotransfecting cells with the vector pHook-1 (Invitrogen, San Diego, Calif., USA). […] Equal concentrations of individual channel and pHook DNA are incubated with 10× concentration of lipofectAce in Modified Eagle's Medium (MEM, Canadian Life Technologies) and incubated with parent HEK cells plated on 25 mm culture dishes. After 3–4 hours the solution is replaced with a standard culture medium plus 20% fetal bovine serum and 1% antimycotic. Transfected cells are maintained at 37C in an air/5% CO2 incubator in 25 mm Petri dishes plated on glass coverslips for 24–48 hours to allow channel expression to occur. 20 min prior to experiments, cells are treated with beads coated with phOX. After 15 min, excess beads are […] off with cell culture medium and cells which had beads stuck to them are used for electrophysiological tests.
(§2) For whole-cell recording the control pipette filling solution contained (in mM): KCl, 130; EGTA, 5; MgCl2, 1; HEPES, 10; Na2ATP, 4; GTP, 0.1; and is adjusted to pH 7.2 with KOH. The control bath solution contained (in mM): NaCl, 135; KCI, 5; sodium acetate, 2.8; MgCl2, 1; HEPES, 10; CaCl2, 1; and is adjusted to pH 7.4 with NaOH. The test ion channel modulating compound is dissolved to 10 mM stock solutions in water and used at concentrations between 0.5 and 100 μM.
(§3) Coverslips containing cells are removed from the incubator before experiments and placed in a superfusion chamber (volume 250 μl) containing the control bath solution at 22C to 23C. All recordings are made via the variations of the patch-clamp technique, using an Axopatch 200A amplifier (Axon Instruments, CA). Patch electrodes are pulled from thin-walled borosilicate glass (World Precision Instruments; FL) on a horizontal micropipette puller, fire-polished, and filled with appropriate solutions. Electrodes had resistances of […] when filled with control filling solution. Analog capacity compensation is used in all whole cell measurements. In some experiments, leak subtraction is applied to data. Membrane potentials have not been corrected for any junctional potentials that arose between the pipette and bath solution. Data are filtered at 5 to 10 kHz before digitization and stored on a microcomputer for later analysis using the pClamp6 software (Axon Instruments, Foster City, Calif.). Due to the high level of expression of channel cDNA's in HEK cells, there is no need for signal averaging. The average cell capacitance is quite small, and the absence of ionic current at negative membrane potentials allowed faithful leak subtraction of data.
(§4) The concentration-response curves for changes in peak and steady-state current produced by the test compound are computer-fitted to the Hill equation: f=1−1/[1+([…])^n] [1]
(§5) where f is the fractional current (f=Idrug/Icontrol) at drug concentration [D]; IC50 is the concentration producing half-maximal inhibition and n is the Hill coefficient.
(§6) Compounds of the present invention may be evaluated by this method. […] Block is determined from the decrease in peak hH1 Na^+ current, or in steady-state Kv1.5 and integrated Kv4.2 current in the presence of drug. To record Na^+ current, cells are depolarized from the holding potential of −100 mV to a voltage of −30 mV for 10 ms to fully open and inactivate the channel. To record Kv1.5 and Kv4.2 current, cells are depolarized from the holding potential of −80 mV to a voltage of +60 mV for 200 ms to fully open the channel. Currents are recorded in the steady-state at a range of drug concentrations during stimulation every 4 s. […]
(The patch-clamp technique gives a direct electrical read-out from membranes.)

Series [2] addresses T2, HERG (Homo sapiens, UniProt Q12809).
T2 construct: expressed in transfected cells; host or cells: HEK cells, transient transfection, vector pCDNA3
Nature of the series: Patch-clamp inhibition of cloned ion channel current in transfected HEK cells: HERG. Format: cell-based. Particulars: whole-cell patch clamp. The method, then: as §1, §2, §3, §4, §5, §6

Structures can show the parent of a compound that is named as a salt.

T2 sequence (Q12809 whole entry): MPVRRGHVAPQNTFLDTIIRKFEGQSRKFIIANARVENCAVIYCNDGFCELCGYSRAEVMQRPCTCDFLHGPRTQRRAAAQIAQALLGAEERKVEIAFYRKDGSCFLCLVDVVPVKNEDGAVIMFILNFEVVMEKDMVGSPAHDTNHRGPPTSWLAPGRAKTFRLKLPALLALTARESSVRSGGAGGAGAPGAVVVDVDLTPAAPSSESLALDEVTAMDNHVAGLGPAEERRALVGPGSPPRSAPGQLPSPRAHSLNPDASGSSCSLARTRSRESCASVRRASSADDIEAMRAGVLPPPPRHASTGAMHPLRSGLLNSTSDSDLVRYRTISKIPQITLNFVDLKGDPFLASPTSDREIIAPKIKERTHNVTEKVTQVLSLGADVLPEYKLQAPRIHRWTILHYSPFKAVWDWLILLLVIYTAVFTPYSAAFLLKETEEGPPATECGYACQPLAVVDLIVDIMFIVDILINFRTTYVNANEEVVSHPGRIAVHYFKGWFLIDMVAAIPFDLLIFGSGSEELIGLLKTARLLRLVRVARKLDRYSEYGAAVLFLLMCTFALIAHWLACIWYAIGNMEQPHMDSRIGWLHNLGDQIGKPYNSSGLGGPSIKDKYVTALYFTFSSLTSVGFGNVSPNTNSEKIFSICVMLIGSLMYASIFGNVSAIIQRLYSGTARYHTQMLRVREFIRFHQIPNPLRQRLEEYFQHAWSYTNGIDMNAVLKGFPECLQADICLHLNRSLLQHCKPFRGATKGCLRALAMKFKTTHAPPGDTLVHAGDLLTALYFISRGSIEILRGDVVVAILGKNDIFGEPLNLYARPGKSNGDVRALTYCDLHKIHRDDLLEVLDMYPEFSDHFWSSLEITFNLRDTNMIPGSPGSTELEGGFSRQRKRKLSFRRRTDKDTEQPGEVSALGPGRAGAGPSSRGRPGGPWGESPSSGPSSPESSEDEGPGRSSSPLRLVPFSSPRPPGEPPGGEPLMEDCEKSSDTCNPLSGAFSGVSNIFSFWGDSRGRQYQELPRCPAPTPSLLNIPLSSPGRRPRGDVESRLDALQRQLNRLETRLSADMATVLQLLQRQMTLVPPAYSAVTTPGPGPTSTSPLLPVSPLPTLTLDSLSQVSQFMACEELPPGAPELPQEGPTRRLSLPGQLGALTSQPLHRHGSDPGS
T1 sequence (P22460 whole entry): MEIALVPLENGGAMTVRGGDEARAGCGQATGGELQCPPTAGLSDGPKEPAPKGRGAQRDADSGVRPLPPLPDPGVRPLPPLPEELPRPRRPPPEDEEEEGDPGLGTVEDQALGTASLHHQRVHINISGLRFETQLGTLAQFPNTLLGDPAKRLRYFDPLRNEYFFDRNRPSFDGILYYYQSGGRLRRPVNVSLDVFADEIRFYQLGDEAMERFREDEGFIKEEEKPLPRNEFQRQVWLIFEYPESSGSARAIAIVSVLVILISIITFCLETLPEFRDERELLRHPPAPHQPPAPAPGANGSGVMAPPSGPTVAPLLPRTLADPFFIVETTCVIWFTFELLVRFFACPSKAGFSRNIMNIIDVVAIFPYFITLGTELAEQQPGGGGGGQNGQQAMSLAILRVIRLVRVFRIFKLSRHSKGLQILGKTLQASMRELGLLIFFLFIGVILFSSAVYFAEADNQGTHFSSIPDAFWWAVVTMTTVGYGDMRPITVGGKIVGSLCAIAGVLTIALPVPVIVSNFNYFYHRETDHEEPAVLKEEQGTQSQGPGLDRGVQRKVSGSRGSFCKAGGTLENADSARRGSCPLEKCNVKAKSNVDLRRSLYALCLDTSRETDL

For the molecule `Cc1cn2ccc(C)c(OCCCc3ccc(Cl)cc3Cl)c2n1` [Compound 14, 8-[3-(2,4-DICHLOROPHENYL)PROPOXY]-2,7-DIMETHYLIMIDAZO[1,2-α]PYRIDINE MONOHYDROCHLORIDE], half-maximal inhibition in series [1] (IC50) required 700 nM. As to `Cc1cn2ccc(C)c(OCC3(c4ccccc4)CC3)c2n1` [Compound 17, 2,7-DIMETHYL-8-[(1-PHENYL-CYCLOPROPYL)METHOXY]IMIDAZO[1,2-α]PYRIDINE MONOHYDROCHLORIDE], the figures for the IC50 in series [2] and in series [1] were 1000 nM and 4000 nM, respectively. The like results for `Cc1cn2ccc(C)c(OCCCc3ccccc3)c2n1` [Compound 18, 2,7-DIMETHYL-8-[3-PHENYLPROPRXY]IMIDAZO[1,2-α]PYRIDINE MONOHYDROCHLORIDE] were, in that order, 1000 nM and 3000 nM.

As for `Cc1nc2c(OCCCc3ccc(Cl)cc3Cl)cccn2c1Br` [Compound 19, 3-BROMO-8-[3-(2,4-DICHLOROPHENYL)PROPOXY]-2-METHYLIMIDAZO[1,2-α]PYRIDINE MONOHYDROCHLORIDE], the IC50 was found to be 400 nM in series [2] and 300 nM in series [1].

Take `CC(C)c1cn2cccc(OCCCc3ccc(Cl)cc3Cl)c2n1` [Compound 20, 8-[3-(2,4-DICHLOROPHENYL)PROPOXY]-2-ISOPROPYLIMIDAZO[1,2-α]PYRIDINE MONOHYDROCHLORIDE]: the results for the IC50 in series [2] and in series [1] were 100 nM and 200 nM, respectively.

With `Cc1nc2c(OCCCc3ccc(Cl)cc3Cl)cccn2c1CO` [Compound 21, {8-[3-(2,4-DICHLOROPHENYL)PROPOXY]-2-METHYLIMIDAZO[1,2-α]PYRIDIN-3-yl}METHANOL MMONOHYDROCHLORIDE], the IC50 was determined as 60 nM in series [2] and 2000 nM in series [1]. Turning to `Cc1nc2c(OCCCc3ccc(Cl)cc3Cl)cccn2c1Cl` [Compound 22, 3-CHLORO-8-[3-(2,4-DICHLOROPHENYL)PROPOXY]-2-METHYLI[1,2-α]PYRIDINE MMONOHYDROCHLORIDE], the values for the IC50 in series [2] and in series [1] were 1000 nM and 400 nM, respectively.

Take `FC(F)(F)c1cn2cccc(OCC3(c4ccccc4)CC3)c2n1` [Compound 23, 8-[(1-PHENYLCYCLOPROPYL)METHOXY]-2-(TRIFLUOROMETHYL)IMIDAZO[1,2-α]PYRIDINE MMONOHYDROCHLORIDE]: the values for the IC50 in series [2] and in series [1] were 9000 nM and 3000 nM, respectively. Take `CNCc1c(C)nc2c(OCCCc3ccc(Cl)cc3Cl)cccn12` [Compound 24, 8-[3-(2,4-DICHLOROPHENYL)PROPOXY]-3-[(METHYLAMINO)METHYL]-2-METHYL-IMIDAZO[1,2-α]PYRIDINE DIHYDROCHLORIDE]: the IC50 is 200 nM in series [2] and 2000 nM in series [1].

As for `Cc1nc2c(OCCCc3ccc(Cl)cc3Cl)cccn2c1CN(C)C` [Compound 25, 8-[3-(2,4-DICHLOROPHENYL)PROPOXY]-3-[(DIMETHYLAMINO)METHYL]-2-METHYLIMIDAZO[1,2-α]PYRIDINE DIHYDROCHLORIDE], the values for the IC50 in series [2] and in series [1] were 100 nM and 8000 nM, respectively.

Turning to `Cc1nc2c(OCCCc3ccc(Cl)cc3Cl)cccn2c1N` [Compound 26, 3-AMINO-8-[3-(2,4-DICHLOROPHENYL)PROPOXY]-2-METHYLIMIDAZO[1,2-α]PYRIDINE DIHYDROCHLORIDE], the IC50 in series [2] is 200 nM; in series [1], 800 nM. In the same order, the values of `Clc1ccc(CCCOc2cccn3c4c(nc23)CCCC4)c(Cl)c1` [Compound 27, 4-[3-(2,4-DICHLOROPHENYL)PROPOXY]-6,7,8,9-TETRAHYDROBENZO[4,5]IMIDAZO-[1,2-α]PYRDINE MMONOHYDROCHLORIDE] are 100 nM and 600 nM.

In the case of `Cc1nc2c(OCC3(c4ccccc4)CC3)cccn2c1Br` [Compound 28, 3-BROMO-2-METHYL-8-[(1-PHENYL-CYCLOPROPYL)METHOXY]IMIDAZO[1,2-α]PYRIDINE MMONOHYDROCHLORIDE], the IC50 in series [2] stood at 2000 nM; in series [1], 800 nM. The like results for `Clc1ccc(CCCOc2cccn3c4c(nc23)CCC4)c(Cl)c1` [Compound 29, 7-[3-(2,4-DICHLOROPHENYL)PROPOXY]-2,3-DIHYDRO-1H-3b,8-DIAZOCYCLOPENTA[a]indene MMONOHYDROCHLORIDE] were, in that order, 80 nM and 700 nM. In the case of `CCOC(=O)c1c(C)nc2c(OCC3(c4ccccc4)CC3)cccn12` [Compound 30, ETHYL 2-METHYL-8-[(1-PHENYL-CYCLOPROPYL)METHOXY]IMIDAZO[1,2-α]PYRIDINE-3-CARBOXYLATE MMONOHYDROCHLORIDE], the IC50 turned out to be 2000 nM in series [2] and 1000 nM in series [1]. The like results for `Cc1nc2c(OCC3(c4ccccc4)CC3)cccn2c1CO` [Compound 31, {2-METHYL-8-[(1-PHENYLCYCLOPROPYL)METHOXY]IMIDAZO[1,2-α]PYRIDIN-3-yl}-METHANOL MONOHYDROCHLORIDE] were, in that order, 3000 nM and 4000 nM. The like results for `Cc1cn2c(C)ccc(OCCCc3ccccc3)c2n1` [Compound 32, 2,5-DIMETHYL-8-(3-PHENYLPROPOXY)IMIDAZO[1,2-α]PYRIDINE MONOHYDROCHLORIDE] were, in that order, 300 nM and 4000 nM. The like results for `Cc1cn2c(C)ccc(OCC3(c4ccccc4)CC3)c2n1` [Compound 33, 2,5-DIMETHYL-8-[(1-PHENYL-CYCLOPROPYL)METHOXY]IMIDAZO[1,2-α]PYRIDINE MONOHYDROCHLORIDE] were, in that order, 900 nM and 3000 nM. Consider `Cc1cn2c(C)ccc(OCCCc3ccc(Cl)cc3Cl)c2n1` [Compound 34, 8-[3-(2,4-DICHLOROPHENYL)PROPOXY]-2,5-DIMETHYLIMIDAZO[1,2-α]PYRIDINE MONOHYDROCHLORIDE], for which the IC50 in series [2] was 40 nM; in series [1], 1000 nM.

`Cc1nc2c(OCCCc3ccc(Cl)cc3Cl)cccn2c1C(=O)O` [Compound 37, SODIUM 8-[3-(2,4-DICHLOROPHENYL)PROPOXY]-2-METHYLIMIDAZO[1,2-α]PYRIDINE-3-CARBOXYLATE]: the IC50 was 4000 nM in series [2] and 18000 nM in series [1]. Consider `CC(C)c1cn2cccc(OCC3(c4ccccc4)CC3)c2n1` [Compound 38, 2-ISOPROPYL-8-[(1-PHENYL-CYCLOPROPYL)METHOXY]IMIDAZO[1,2-α]PYRIDINE MONOHYDROCHLORIDE], for which the IC50 in series [2] was found to be 1000 nM; in series [1] it was 400 nM. For the molecule `Cc1nc2c(OCC3(c4ccccc4)CC3)cccn2c1Cl` [Compound 39, 3-CHLORO-2-METHYL-8-[(1-PHENYL-CYCLOPROPYL)METHOXY]IMIDAZO[1,2-α]PYRIDINE MONOHYDROCHLORIDE], the values for the half-maximal inhibitory concentration (IC50) in series [2] and in series [1] were 3000 nM and 700 nM, respectively. The like results for `Cc1nc2c(OCC3(c4ccccc4)CC3)cccn2c1CN(C)C` [Compound 40, 3-(DIMETHYLAMINO)METHYL-2-METHYL-8-[(1-PHENYL-CYCLOPROPYL)METHOXY]-IMIDAZO[1,2-α]PYRIDINE DIHYDROCHLORIDE] were, in that order, 1000 nM and 23000 nM.

For the molecule `CC(=O)Nc1c(C)nc2c(OCCCc3ccc(Cl)cc3Cl)cccn12` [Compound 41, 3-ACETAMIDO-8-[3-(2,4-DICHLOROPHENYL)PROPOXY]-2-METHYLIMIDAZO[1,2-α]PYRIDINE MONOHYDROCHLORIDE], the IC50 came out at 600 nM in series [2] and 5000 nM in series [1]. For `Cc1nc2c(OCC3(c4ccccc4)CC3)cccn2c1N` [Compound 43, 3-AMINO-2-METHYL-8-[(1-PHENYL-CYCLOPROPYL)METHOXy]IMIDAZO[1,2-α]PYRIDINE MONOHYDROCHLORIDE], the IC50 worked out at 700 nM in series [2] and 1600 nM in series [1].

A word on the IC50: it is the concentration that gives 50% inhibition. A low value points to greater potency.
